Results published in ChEMBL document CHEMBL4270575, “Lead-like Drugs: A Perspective” (J Med Chem, 2018).

Experiments:
[1] = biological target: 3',5'-cyclic-AMP phosphodiesterase 4D (Homo sapiens, UniProt Q08499); assay: Inhibition of PDE4D7 (unknown origin)
[2] = biological target: T1, 3',5'-cyclic-AMP phosphodiesterase 4B (Homo sapiens, UniProt Q07343); assay: Inhibition of PDE4B1 (unknown origin)
[3] = biological target: T1, 3',5'-cyclic-AMP phosphodiesterase 4B; assay: Inhibition of PDE4B2 (unknown origin)
[4] = biological target: 3',5'-cyclic-AMP phosphodiesterase 4A (Homo sapiens, UniProt P27815); assay: Inhibition of PDE4A1A (unknown origin)
[5] = biological target: 3',5'-cyclic-AMP phosphodiesterase 4C (Homo sapiens, UniProt Q08493); assay: Inhibition of PDE4C1 (unknown origin)
3',5'-cyclic-AMP phosphodiesterase 4C, sequence (Q08493 whole entry): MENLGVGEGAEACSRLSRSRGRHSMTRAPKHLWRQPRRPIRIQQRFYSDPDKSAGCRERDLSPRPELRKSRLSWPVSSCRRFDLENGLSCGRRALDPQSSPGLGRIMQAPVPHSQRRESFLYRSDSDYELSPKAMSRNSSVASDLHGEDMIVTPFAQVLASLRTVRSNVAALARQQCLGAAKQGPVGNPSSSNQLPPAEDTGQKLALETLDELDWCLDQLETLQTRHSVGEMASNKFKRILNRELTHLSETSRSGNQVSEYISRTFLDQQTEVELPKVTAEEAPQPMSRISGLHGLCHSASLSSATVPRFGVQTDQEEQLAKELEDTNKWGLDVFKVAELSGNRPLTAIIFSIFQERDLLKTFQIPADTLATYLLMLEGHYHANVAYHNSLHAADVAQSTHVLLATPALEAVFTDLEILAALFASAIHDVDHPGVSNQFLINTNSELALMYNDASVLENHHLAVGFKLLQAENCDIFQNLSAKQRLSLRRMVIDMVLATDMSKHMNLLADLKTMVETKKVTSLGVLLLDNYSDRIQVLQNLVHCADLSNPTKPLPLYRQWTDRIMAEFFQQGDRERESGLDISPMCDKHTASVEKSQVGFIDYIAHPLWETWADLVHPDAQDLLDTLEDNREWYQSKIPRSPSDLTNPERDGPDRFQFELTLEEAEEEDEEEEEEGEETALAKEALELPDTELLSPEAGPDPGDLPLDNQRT

T1 sequence (Q07343 whole entry): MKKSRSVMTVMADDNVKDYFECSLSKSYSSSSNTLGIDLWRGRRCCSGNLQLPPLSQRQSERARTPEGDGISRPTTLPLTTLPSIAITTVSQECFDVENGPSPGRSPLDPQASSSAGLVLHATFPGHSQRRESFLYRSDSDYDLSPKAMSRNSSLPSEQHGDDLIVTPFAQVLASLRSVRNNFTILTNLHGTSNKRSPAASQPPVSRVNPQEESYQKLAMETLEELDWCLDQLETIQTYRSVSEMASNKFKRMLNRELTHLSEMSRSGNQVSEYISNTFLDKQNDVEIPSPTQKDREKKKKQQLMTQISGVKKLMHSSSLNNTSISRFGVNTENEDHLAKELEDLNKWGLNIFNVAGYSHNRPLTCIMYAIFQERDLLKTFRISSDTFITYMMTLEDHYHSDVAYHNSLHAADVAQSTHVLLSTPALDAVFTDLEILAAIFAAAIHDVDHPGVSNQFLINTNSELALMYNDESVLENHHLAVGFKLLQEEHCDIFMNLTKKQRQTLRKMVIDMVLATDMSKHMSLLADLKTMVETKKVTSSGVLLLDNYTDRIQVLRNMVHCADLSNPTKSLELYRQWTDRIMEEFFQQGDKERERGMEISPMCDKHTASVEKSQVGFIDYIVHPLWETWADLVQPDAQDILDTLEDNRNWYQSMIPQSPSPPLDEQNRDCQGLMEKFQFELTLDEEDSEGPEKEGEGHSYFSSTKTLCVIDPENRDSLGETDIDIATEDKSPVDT
3',5'-cyclic-AMP phosphodiesterase 4A, sequence (P27815 whole entry): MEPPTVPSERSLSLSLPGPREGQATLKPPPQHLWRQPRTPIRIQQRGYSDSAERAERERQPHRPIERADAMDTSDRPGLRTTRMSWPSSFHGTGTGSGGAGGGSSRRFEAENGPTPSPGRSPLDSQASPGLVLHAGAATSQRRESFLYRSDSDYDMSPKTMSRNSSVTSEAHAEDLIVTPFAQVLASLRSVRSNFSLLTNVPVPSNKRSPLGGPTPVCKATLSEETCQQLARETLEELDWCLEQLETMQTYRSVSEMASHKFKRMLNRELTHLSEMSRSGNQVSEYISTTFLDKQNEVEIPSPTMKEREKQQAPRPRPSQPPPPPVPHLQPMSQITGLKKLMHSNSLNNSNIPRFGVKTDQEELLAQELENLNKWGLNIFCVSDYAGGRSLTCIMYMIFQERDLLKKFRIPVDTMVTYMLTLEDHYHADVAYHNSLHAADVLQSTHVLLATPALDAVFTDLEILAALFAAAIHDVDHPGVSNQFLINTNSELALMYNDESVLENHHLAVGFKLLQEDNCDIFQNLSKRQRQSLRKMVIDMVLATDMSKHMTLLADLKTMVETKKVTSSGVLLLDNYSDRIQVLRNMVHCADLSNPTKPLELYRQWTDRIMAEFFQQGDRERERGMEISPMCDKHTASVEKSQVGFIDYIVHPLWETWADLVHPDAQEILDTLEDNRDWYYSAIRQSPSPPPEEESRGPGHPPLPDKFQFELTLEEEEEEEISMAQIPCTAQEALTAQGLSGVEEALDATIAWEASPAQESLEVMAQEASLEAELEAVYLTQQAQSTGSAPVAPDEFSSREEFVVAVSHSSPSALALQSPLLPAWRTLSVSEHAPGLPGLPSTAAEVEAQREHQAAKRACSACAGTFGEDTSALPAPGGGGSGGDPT
3',5'-cyclic-AMP phosphodiesterase 4D, sequence (Q08499 whole entry): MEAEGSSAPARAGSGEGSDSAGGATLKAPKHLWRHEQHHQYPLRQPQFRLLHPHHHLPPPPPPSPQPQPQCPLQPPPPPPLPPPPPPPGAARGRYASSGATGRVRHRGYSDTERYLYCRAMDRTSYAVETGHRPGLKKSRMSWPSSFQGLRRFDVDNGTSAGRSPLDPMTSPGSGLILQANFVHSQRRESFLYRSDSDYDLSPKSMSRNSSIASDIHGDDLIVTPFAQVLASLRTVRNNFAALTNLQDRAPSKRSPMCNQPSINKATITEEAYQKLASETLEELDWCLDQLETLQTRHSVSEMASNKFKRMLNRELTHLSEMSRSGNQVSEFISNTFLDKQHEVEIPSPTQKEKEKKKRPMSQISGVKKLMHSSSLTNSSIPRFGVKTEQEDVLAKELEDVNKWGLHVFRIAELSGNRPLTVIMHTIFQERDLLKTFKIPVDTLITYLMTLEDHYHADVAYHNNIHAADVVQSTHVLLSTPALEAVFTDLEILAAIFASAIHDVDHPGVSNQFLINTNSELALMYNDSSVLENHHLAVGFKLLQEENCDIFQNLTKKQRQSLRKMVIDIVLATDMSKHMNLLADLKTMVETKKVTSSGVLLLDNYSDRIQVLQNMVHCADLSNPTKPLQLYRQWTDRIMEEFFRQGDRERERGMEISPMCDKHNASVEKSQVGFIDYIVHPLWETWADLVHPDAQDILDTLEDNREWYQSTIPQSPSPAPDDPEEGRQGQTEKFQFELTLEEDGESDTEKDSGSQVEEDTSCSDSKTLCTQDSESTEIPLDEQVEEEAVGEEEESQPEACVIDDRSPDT

IC50 [1]: 55 to 340 nM
IC50 [2]: 55 to 340 nM
IC50 [3]: 55 to 340 nM
IC50 [4]: 55 to 340 nM
IC50 [5]: 55 to 340 nM
Structure (SMILES): N#Cc1ccc(Oc2ccc3c(c2)COB3O)cc1 [CRISABOROLE]
